Reference: patent US20240189287A1, “PERIPHERALLY RESTRICTED CB1 RECEPTOR BLOCKERS AND USES THEREOF” (BIONANOSIM (BNS) LTD, priority 2021, published 2024)
Read-outs that look alike come from different tables or passages of the source.

Columns and labels:
CB1 receptor [1] = biological target: CB1 receptor (Homo sapiens (Human), UniProt P21554); test: CB1 receptor radioligand binding assay, membranes from human source; conditions: human (h) CB1 receptor; read-out: CB1R Ki (nM) (h)
Description: (§1) Radioligand binding assays: Binding affinity was determined by a radioligand binding assay. The different BB8-conjugates binding to CB1 and CB2 receptors was assessed in competition displacement assays using [^3H]CP-55.940 as the radioligand and crude membranes from mouse brain for CB1 receptor and human kidney cells for CB2 receptor.
(§2) CB1 receptor binding assay: Mouse brain membranes were used as the source material for CB1 receptors. The displacement of specifically bound tritiated CP-55.940 from these membranes using a standard filtration assay was used to determine the Ki values for the test compounds. Briefly. 20 μg of protein was incubated for 1 h at 30° C. in the presence of 0.5 nM [^3H]CP-55,940 and various concentrations (10^−5M-10^−11M) of test compound/control, final volume of 1 mL. The incubation was terminated by rapid filtration and washing, and the amount of specifically bound [^3H]CP-55,940 was determined. Briefly, membranes with bound [^3H]CP-55,940 were separated and washed from free ligand by vacuum filtration, adsorbing the membrane onto a Whatman glass microfiber filter paper ([…], Cat #1821271). Finally, the Whatman filter paper with adsorbed membranes was cut and placed in scintillation liquid (Ultima Gold) for 1 h at 25° C. followed by a β counter reading of bound [^3H]CP-55,940 radioligand. All data were in triplicates with Ki values determined using GraphPad Prism 7.02 analysis software. […] In some cases, membranes from human source were used to determine CB1 receptor binding affinity.

CB1 receptor [2] = biological target: T1, CB1 receptor (Mus musculus (Mouse), UniProt P47746); test: CB1 receptor radioligand binding assay, [3H]CP-55,940 displacement, mouse brain membranes; conditions: mouse (m) CB1 receptor; read-out: CB1R Ki (nM) (m)
Description: as §1, §2

CB2 receptor = CB2 receptor (Homo sapiens (Human), UniProt P34972); test: CB2 receptor radioligand binding assay, [3H]CP-55,940 displacement, human kidney membranes; conditions: read-out: hCB2R Ki
Description: as §1
CB2 receptor binding assay: Human kidney membranes were used as the source material for CB2 receptors. The displacement of specifically bound tritiated CP-55,940 from these membranes using a standard filtration assay was used to determine the Ki values for the test compounds. Briefly, 1.25 μg of protein was incubated for 1.5 h at 30° C. in the presence of 0.5 nM [^3H]CP-55,940 and various concentrations (10^−5M-10^−11M) of test compound/control, final volume of 1 mL. The incubation was terminated by rapid filtration and washing, and the amount of specifically bound [^3H]CP-55,940 was determined. Briefly, membranes with bound [^3H]CP-55,940 were separated and washed from free ligand by vacuum filtration, adsorbing the membrane onto a Whatman glass microfiber filter paper ([…], Cat #1821271). Finally, the Whatman filter paper with adsorbed membranes was cut and placed in scintillation liquid (Ultima Gold) for 1 h at 25° C. followed by a β counter reading of bound [^3H]CP-55,940 radioligand. All data were in triplicates with Ki values determined using GraphPad Prism 7.02 analysis software.

CB1 receptor [3] = biological target: T1, CB1 receptor; test: [35S]GTPγS binding assay for CB1 receptor, mouse brain membranes; assay type: biochemical; conditions: nature of binding: agonist/antagonist/inverse agonist
Description: For CB1 receptor-mouse brains were dissected and P2 membranes prepared and resuspended at ˜2 μg protein/μL in 1 ml assay buffer (50 mM Tris HCl, 9 mM MgCl2, 0.2 mM EDTA, 150 mM NaCl; pH 7.4). Ligand-stimulated [^35S]GTPγS binding was assayed as described previously (Tam et al., JCI 2010). Briefly, membranes (10 μg protein) were incubated in assay buffer containing 100 μM GDP, 0.05 nM [^35S]GTPγS, test compounds at various concentrations (CP55940/Rimonabant as controls and test compounds for BB8 conjugates), and 1.4 mg/mL fatty acid-free BSA in siliconized glass tubes. Membranes with bound ligand ([^35S]GTPγS) were separated from free ligand by vacuum filtration and were analyzed using β counter as described above. Non-specific binding was determined using 10 μM GTPS (cold GTP). Basal binding was assayed in the absence of the tested compound and in the presence of GDP.

[4] = Tissue distribution: brain, plasma and liver levels after oral dosing; assay type: in vivo, C57BL/6J mice; conditions: male, C57BL/6J, mouse, in vivo, po, 10 mg/kg
Description: Tissue distribution and pharmacokinetics: Tissue levels of antagonist: 3 male C57BL/6J mice (7-9 weeks, PO group) were used in this study. Mice were fasted prior to administration of test article and had access to food 4 hours post dosing. Appropriate amount of test article was accurately weighted and mixed with the appropriate volume of vehicle to get a clear oral solution. The formulation was prepared on the day of dosing, and mice were dosed via oral gavage up to 4 hr after formulation was prepared. After 1 hour, mice were scarified and about 200 μL blood was collected from cardiac puncture followed by plasma preparation. Brain and liver were removed and further processed. Dose formulation and sample analysis was performed by LC-MS/MS method.
The peripherality of selected BB8 conjugates (BNS) was evaluated in vivo measuring their respective brain, plasma, and liver levels 1 hr following 10 mg/kg oral administration.

P-gp (MDR1, ABCB1) = test: MDR1-MDCK II cell permeation assay (bi-directional permeability, P-gp efflux); assay type: in vitro ADME; conditions: dog; for Papp at 2.5 h, 2 μM: A to B
Description: (§3) Test and reference compounds were diluted with transport buffer (HBSS with 10 mM Hepes, pH 7.4) from stock solution to a concentration of 2 μM (DMSO<1%) and applied to the apical or basolateral side of the cell monolayer. Permeation of the test compounds from A to B direction or B to A direction was determined in duplicate with/without P-gp inhibitor (GF120918, 10 μM). […] The plate was incubated for 2.5 hours in CO2 incubator at 37±1° C., with 5% CO2 at saturated humidity without shaking. In addition, the efflux ratio of each compound was also determined. Test and reference compounds were quantified by LC-MS/MS analysis based on the peak area ratio of analyte/IS.
(§4) The in vitro bi-directional permeability across MDR1-MDCKII cells including P-glycoprotein (Pgp, ABCB1) efflux in the presence and absence of a P-gp inhibitor is an indicator as to the tendency of an orally administered compound to penetrate the brain.

MDR1-MDCKII cells = test: as above; assay type: in vitro ADME
Description: as §3, §4

HepG2 Cells = test: Cell Viability Assay in HepG2 Cells at 72 h; assay type: cell-based, human; conditions: Homo sapiens, HepG2, 72 h; read-out: Relative IC50
Description: The liver plays a central role in transforming and clearing chemicals, and therefore is susceptible to toxicity of these agents. BNS808, BNS822 and other selected compounds were tested in the HepG2 assay using […] to evaluate cytotoxicity.

CYP 2D6 = CYP 2D6 (Homo sapiens (Human), UniProt P10635); test: CYP inhibition in human liver microsomes; assay type: in vitro ADME; conditions: CYP isozyme 2D6, standard inhibitor
Description: To evaluate the in vitro CYP inhibition of BNS808 and BNS822, the compounds were tested in human liver microsomes that are rich in drug metabolizing enzymes, including CYPs 1A2, 2C9, 2C19, 2D6, 3A4.

[5] = MDCK-MDR1, pH 7.4, with GF120918, 10 μM, efflux ratio in the presence of P-gp inhibitor GF120918, read-out: MDR1 B:A/A:B (+P-gp inhibitor)
[6] = MDCK-MDR1, pH 7.4, efflux ratio, without P-gp inhibitor, read-out: MDR1 B:A/A:B

CB2 receptor, sequence (P34972 whole entry): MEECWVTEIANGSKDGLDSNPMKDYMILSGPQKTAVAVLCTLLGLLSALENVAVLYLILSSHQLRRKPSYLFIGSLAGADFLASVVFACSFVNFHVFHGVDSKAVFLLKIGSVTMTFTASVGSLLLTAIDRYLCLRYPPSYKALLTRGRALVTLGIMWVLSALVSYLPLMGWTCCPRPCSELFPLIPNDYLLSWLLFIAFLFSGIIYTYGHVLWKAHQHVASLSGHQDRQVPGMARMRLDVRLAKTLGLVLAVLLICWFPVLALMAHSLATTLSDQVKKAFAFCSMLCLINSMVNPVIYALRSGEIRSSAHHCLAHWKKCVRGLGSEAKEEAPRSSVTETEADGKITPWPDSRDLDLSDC
CB1 receptor (Homo sapiens (Human), UniProt P21554), sequence (P21554 whole entry): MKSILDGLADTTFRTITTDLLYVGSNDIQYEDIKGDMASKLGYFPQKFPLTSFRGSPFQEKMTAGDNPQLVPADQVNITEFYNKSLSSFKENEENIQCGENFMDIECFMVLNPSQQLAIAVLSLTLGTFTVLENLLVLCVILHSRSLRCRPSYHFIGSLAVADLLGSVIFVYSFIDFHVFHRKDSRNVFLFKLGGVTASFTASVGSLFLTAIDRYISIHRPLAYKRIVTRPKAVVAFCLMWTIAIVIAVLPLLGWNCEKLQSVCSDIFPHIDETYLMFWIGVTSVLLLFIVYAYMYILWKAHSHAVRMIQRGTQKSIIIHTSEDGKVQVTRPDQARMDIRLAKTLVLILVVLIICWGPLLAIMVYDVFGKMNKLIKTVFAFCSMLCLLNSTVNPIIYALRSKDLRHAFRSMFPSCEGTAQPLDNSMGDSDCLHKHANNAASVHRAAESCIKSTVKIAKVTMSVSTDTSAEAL
T1 sequence (P47746 whole entry): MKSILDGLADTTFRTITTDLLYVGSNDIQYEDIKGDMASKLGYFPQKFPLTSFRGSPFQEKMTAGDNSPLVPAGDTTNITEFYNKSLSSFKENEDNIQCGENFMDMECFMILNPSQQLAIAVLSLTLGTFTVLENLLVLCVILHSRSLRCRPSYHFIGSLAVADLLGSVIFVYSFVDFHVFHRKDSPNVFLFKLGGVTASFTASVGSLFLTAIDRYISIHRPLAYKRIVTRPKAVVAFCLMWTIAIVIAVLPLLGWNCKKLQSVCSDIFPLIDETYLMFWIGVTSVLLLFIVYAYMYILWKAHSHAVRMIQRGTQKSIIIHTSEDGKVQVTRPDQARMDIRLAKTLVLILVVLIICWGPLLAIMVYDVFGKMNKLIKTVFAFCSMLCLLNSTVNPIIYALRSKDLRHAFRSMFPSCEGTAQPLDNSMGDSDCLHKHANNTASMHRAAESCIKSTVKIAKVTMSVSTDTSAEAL
CYP 2D6, sequence (P10635 whole entry): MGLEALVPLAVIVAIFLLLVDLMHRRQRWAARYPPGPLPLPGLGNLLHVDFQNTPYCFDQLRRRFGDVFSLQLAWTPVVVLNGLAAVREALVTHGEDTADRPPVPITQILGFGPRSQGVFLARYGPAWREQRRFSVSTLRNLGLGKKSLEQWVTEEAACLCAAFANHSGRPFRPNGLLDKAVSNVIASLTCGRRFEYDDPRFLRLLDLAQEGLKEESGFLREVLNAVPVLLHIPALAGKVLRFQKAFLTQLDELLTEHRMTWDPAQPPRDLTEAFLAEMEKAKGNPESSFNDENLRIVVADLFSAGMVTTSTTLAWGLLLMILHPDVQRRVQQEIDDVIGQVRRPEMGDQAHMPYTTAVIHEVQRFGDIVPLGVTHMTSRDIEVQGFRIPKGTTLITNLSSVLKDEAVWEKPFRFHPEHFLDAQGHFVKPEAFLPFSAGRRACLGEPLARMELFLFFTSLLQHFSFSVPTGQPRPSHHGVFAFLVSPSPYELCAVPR

Row | Compound | Ki (CB1 receptor [1]) | Ki (CB1 receptor [2]) | Ki (CB2 receptor) | mCB1R GTPγ[^35S] (activity) (CB1 receptor [3]) | Kp at 1 h [4] | efflux ratio at 2.5 h, 2 μM (P-gp (MDR1, ABCB1); [5]) | Papp at 2.5 h, 2 μM (P-gp (MDR1, ABCB1); MDCK-MDR1, pH 7.4) | efflux ratio at 2.5 h, 2 μM (P-gp (MDR1, ABCB1); [6]) | P-gp substrate (MDR1-MDCKII cells) | Rank Papp (MDR1-MDCKII cells) | IC50 (HepG2 Cells) | % Inhibition (CYP 2D6)
1 | O=C(NC1CCCOc2c1nn(-c1ccccc1Cl)c2-c1ccc(Cl)cc1)c1cccnc1 (stereo not drawn) [BNS803, N-[2-(2-chlorophenyl)-3-(4-chlorophenyl)-5,6,7,8-tetrahydrooxepino[3,2-c]pyrazol-8-yl]pyridine-3-carboxamide] | 6.48 nM | 22.4 nM | > 9110 nM | Inverse agonist | 1.6 | 0.63 | 13.2 ×10⁻⁶ cm/s | 0.77 | No | High | – | –
2 | O=C(NC1CCCOc2c1nn(-c1ccccc1Cl)c2-c1ccc(Cl)cc1)c1ncc[nH]1 (stereo not drawn) [BNS806, N-[2-(2-chlorophenyl)-3-(4-chlorophenyl)-5,6,7,8-tetrahydrooxepino[3,2-c]pyrazol-8-yl]-1H-imidazole-2-carboxamide] | 23.7 nM | 165 nM | > 9110 nM | Antagonist; In. Agonist >[c] | – | – | – | – | – | – | – | –
3 | Cc1ccc(S(=O)(=O)NC2CCCOc3c2nn(-c2ccccc2Cl)c3-c2ccc(Cl)cc2)cc1 (stereo not drawn) [BNS807, N-[2-(2-chlorophenyl)-3-(4-chlorophenyl)-5,6,7,8-tetrahydrooxepino[3,2-c]pyrazol-8-yl]-4-methyl-benzenesulfonamide] | 1.4 nM | 10 nM | 1650 nM | Inverse agonist | – | – | – | – | – | – | 18000 nM | –
4 | C=C[C@H]1C[N@@]2CC[C@H]1C[C@@H]2[C@@H](O)c1ccnc2ccc(OC)cc12 [Quinidine, reference compound] | – | – | – | – | – | – | – | – | – | – | – | 96.2%

Second part, led by results:

Row | Ki (CB1 receptor [1]) | Ki (CB1 receptor [2]) | Ki (CB2 receptor) | mCB1R GTPγ[^35S] (activity) (CB1 receptor [3]) | Kp at 1 h [4] | efflux ratio at 2.5 h, 2 μM (P-gp (MDR1, ABCB1); [5]) | Papp at 2.5 h, 2 μM (P-gp (MDR1, ABCB1); MDCK-MDR1, pH 7.4) | efflux ratio at 2.5 h, 2 μM (P-gp (MDR1, ABCB1); [6]) | P-gp substrate (MDR1-MDCKII cells) | Rank Papp (MDR1-MDCKII cells) | IC50 (HepG2 Cells) | Compound | % Inhibition (CYP 2D6)
5 | 232 nM | 805 nM | – | – | – | – | – | – | – | – | – | O=C(NC1CCCOc2c1nn(-c1ccccc1Cl)c2-c1ccc(Cl)cc1)c1nc[nH]n1 (stereo not drawn) [BNS801, N-[2-(2-chlorophenyl)-3-(4-chlorophenyl)-5,6,7,8-tetrahydrooxepino[3,2-c]pyrazol-8-yl]-1H-1,2,4-triazole-3-carboxamide] | –
6 | 1.96 nM | 1.16 nM | 5700 nM | Antagonist | – | – | – | – | – | – | – | CC(C)(Oc1ccc(Cl)cc1)C(=O)NC1CCCOc2c1nn(-c1ccccc1Cl)c2-c1ccc(Cl)cc1 (stereo not drawn) [BNS804, 2-(4-chlorophenoxy)-N-[2-(2-chlorophenyl)-3-(4-chlorophenyl)-5,6,7,8-tetrahydrooxepino[3,2-c]pyrazol-8-yl]-2-methyl-propanamide] | –
7 | 8.75 nM | 77.8 nM | 8340 nM | Inverse agonist | – | 0.55 | 4.93 ×10⁻⁶ cm/s | 0.82 | Partial | Moderate | – | O=C(NC1CCCOc2c1nn(-c1ccccc1Cl)c2-c1ccc(Cl)cc1)c1cnccn1 (stereo not drawn) [BNS805, N-[2-(2-chlorophenyl)-3-(4-chlorophenyl)-5,6,7,8-tetrahydrooxepino[3,2-c]pyrazol-8-yl]pyrazine-2-carboxamide] | –
8 | 7.7 nM | 33.8 nM | > 9110 nM | Antagonist | – | – | – | – | – | – | – | CS(=O)(=O)NC1CCCOc2c1nn(-c1ccccc1Cl)c2-c1ccc(Cl)cc1 (stereo not drawn) [BNS809, N-[2-(2-chlorophenyl)-3-(4-chlorophenyl)-5,6,7,8-tetrahydrooxepino[3,2-c]pyrazol-8-yl]methanesulfonamide] | –
